Key:
Assay in all cases: Minimum inhibitory concentration, microtitre plate doubling dilutions
Format in all cases: cell-based
Escherichia coli = details: for MIC versus organism E.c: biocide alone, visual growth after 24 hours at 37° C.
Method: (§1) Bacteria were grown to stationary phase (18 h) in nutrient broth (approximately 10^9 organisms per ml). A 0.1% (v/v) inoculum was used to seed fresh medium and 100 μl of this was added to each well of a microtitre plate, except for the first well which contained 200 μl. Using doubling dilutions, the concentration of each antimicrobial was varied in each well along the ordinate axis. The presence or absence of growth was determined by visual inspection after 24 hours incubation at 37° C.

Staphylococcus aureus = details: for MIC versus organism S.a: biocide alone, visual growth after 24 hours at 37° C.
Method: as §1

Pseudomonas aeruginosa = details: for MIC versus organism Ps.a: biocide alone, visual growth after 24 hours at 37° C.
Method: as §1

Row | Molecule | MIC (Escherichia coli; Escherichia coli, 24 h, read-out: MIC versus organism E.c) [µg/mL] | MIC (Staphylococcus aureus; Staphylococcus aureus, 24 h, read-out: MIC versus organism S.a) [µg/mL] | MIC (Pseudomonas aeruginosa; Pseudomonas aeruginosa, 24 h, read-out: MIC versus organism Ps.a) [µg/mL] | MIC versus organism E.c (Escherichia coli) [ppm] | MIC versus organism S.a (Staphylococcus aureus) [ppm] | MIC versus organism Ps.a (Pseudomonas aeruginosa) [ppm]
1 | CCCCCCCCCC[N+](C)(C)CCCCCCCCCC.[Cl-] [Bardac 22.70, Didecyldimethyl ammonium chloride] | 4 | 1 | 8 | – | – | –
2 | CCCCCCCCCCCCN(CCCN)CCCN [Lonzabac 12.30, N-3-aminopropyl-N-dodecylpropane-1-3-diamine] | – | – | – | 16 | 8 | 32
3 | [Na+].[O-][n+]1ccccc1[S-] [Sodium Omadine, Na pyrithione] | – | – | – | 500 | 1 | 16
4 | Alkyldimethylbenzylammonium chloride [Barquat 4214] | – | – | – | 8 | 2 | 32
5 | Benzyl C12-16 alkyl dimethyl chlorides [Barquat DM-80] | – | – | – | 12 | 2 | 32
6 | Didecyl dimethyl ammonium carbonate/bicarbonate [Carboquat HE] | – | – | – | 4 | 1 | 8
7 | N,N-Didecyl-N-methyl-poly(oxyethyl)ammonium propionate [Bardap 26] | – | – | – | 4 | 1 | 16

From patent US20200305437A1, “SYNERGISTIC ANTIMICROBIAL COMBINATIONS CONTAINING QUATERNARY AMMONIUM BIOCIDE” (LONZA, LLC, priority 2016, published 2020)
